Measurements taken from PubChem BioAssay AID1745844 (Carcinogenic Potency Database (CPDB), 2022).
“And” between values parts separate entries of the source, which are not always exact repeats. Equal values may be shown once. The source made the active and inactive calls. The rule behind the calls is not given here.

Test system: rodent lifetime carcinogenesis bioassay, tumor incidence TD50
Assay: carcinogenic potency in animals, long-term in vivo studies, CPDB compilation (AID 1745844)

Work on `O=NN1CC=CCC1` yielded a TD50 (rat, strain Fischer 344, females, in drinking water, site: esophagus, lesion: several types, types named in the paper, dosed 25 weeks, study length 128 weeks) of 0.216 mg/kg/day, a TD50 (rat, strain Fischer 344, females, in drinking water, site: esophagus, lesion: several types, types named in the paper, dosed 70 weeks, study length 100 weeks) of 0.127 mg/kg/day and a TD50 (rat, strain Fischer 344, females, in drinking water, site: esophagus, lesion: several types, types named in the paper, dosed 100 weeks, study length 128 weeks) of 0.0669 mg/kg/day. For the same compound, the TD50 (rat, strain Fischer 344, females, in drinking water, site: esophagus, lesion: squamous-cell carcinoma, dosed 100 weeks, study length 128 weeks) was 0.43 mg/kg/day, the TD50 (rat, strain Fischer 344, females, in drinking water, site: liver, lesion: hemangiosarcoma, dosed 25 weeks, study length 128 weeks) was 4.04 mg/kg/day and the carcinogen call (rat, strain Fischer 344, females, in drinking water, site: liver, lesion: hepatocellular carcinoma, dosed 25 weeks, study length 128 weeks) was “positive”. For the same compound, the TD50 (rat, strain Fischer 344, females, in drinking water, site: liver, lesion: hyperplastic nodule, dosed 70 weeks, study length 100 weeks) was 2.15 mg/kg/day, the TD50 (rat, strain Fischer 344, females, in drinking water, site: liver, lesion: hyperplastic nodule, dosed 100 weeks, study length 128 weeks) was 0.284 mg/kg/day and the carcinogen call (rat, strain Fischer 344, females, in drinking water, site: liver, lesion: several types, types named in the paper, dosed 25 weeks, study length 128 weeks) was “positive”. The TD50 (rat, strain Fischer 344, females, in drinking water, site: liver, lesion: several types, types named in the paper, dosed 100 weeks, study length 128 weeks) was 0.132 mg/kg/day, the carcinogen call (rat, strain Fischer 344, females, in drinking water, site: stomach, nonglandular, lesion: basal-cell papilloma, dosed 25 weeks, study length 128 weeks) was “positive” and the TD50 (rat, strain Fischer 344, females, in drinking water, site: stomach, nonglandular, lesion: basal-cell papilloma, dosed 100 weeks, study length 128 weeks) was 0.0551 mg/kg/day. It also gave a TD50 (rat, strain Fischer 344, females, in drinking water, site: upper gastrointestinal tract, lesion: carcinoma, dosed 25 weeks, study length 128 weeks) of 0.271 mg/kg/day, a TD50 (rat, strain Fischer 344, females, in drinking water, site: upper gastrointestinal tract, lesion: carcinoma, dosed 70 weeks, study length 100 weeks) of 0.0966 mg/kg/day and a TD50 (rat, strain Fischer 344, females, in drinking water, site: upper gastrointestinal tract, lesion: carcinoma, dosed 100 weeks, study length 128 weeks) of 0.0856 mg/kg/day. The TD50 (rat, strain Fischer 344, females, in drinking water, site: upper gastrointestinal tract, lesion: several types, types named in the paper, dosed 25 weeks, study length 128 weeks) was 0.142 mg/kg/day, the carcinogen call (rat, strain Fischer 344, females, in drinking water, site: upper gastrointestinal tract, lesion: several types, types named in the paper, dosed 70 weeks, study length 100 weeks) was “positive” and the TD50 (rat, strain Fischer 344, females, in drinking water, site: upper gastrointestinal tract, lesion: several types, types named in the paper, dosed 100 weeks, study length 128 weeks) was 0.0374 mg/kg/day.

For `CCC1(c2ccccc2)C(=O)NCNC1=O`, the TD50 (mouse, strain B6C3F1, females, in feed, site: any site (literature study), lesion: several types, types named in the paper, dosed 101 weeks, study length 104 weeks) was 163 mg/kg/day, the TD50 (mouse, strain B6C3F1, females, in feed, site: liver, lesion: hepatoblastoma + hepatocellular carcinoma, dosed 101 weeks, study length 104 weeks) was 98.7 mg/kg/day and the TD50 (mouse, strain B6C3F1, females, in feed, site: liver, lesion: hepatoblastoma, dosed 101 weeks, study length 104 weeks) was 1390 mg/kg/day. It also gave a TD50 (mouse, strain B6C3F1, females, in feed, site: liver, lesion: hepatocellular adenoma + hepatoblastoma + hepatocellular carcinoma, dosed 101 weeks, study length 104 weeks) of 42.8 mg/kg/day, a TD50 (mouse, strain B6C3F1, females, in feed, site: liver, lesion: hepatocellular adenoma + hepatocellular carcinoma, dosed 101 weeks, study length 104 weeks) of 28.9 mg/kg/day and a TD50 (mouse, strain B6C3F1, females, in feed, site: liver, lesion: hepatocellular adenoma, dosed 101 weeks, study length 104 weeks) of 27.7 mg/kg/day. For the same compound, the TD50 (mouse, strain B6C3F1, females, in feed, site: liver, lesion: hepatocellular carcinoma, dosed 101 weeks, study length 104 weeks) was 97.3 mg/kg/day, the TD50 (mouse, strain B6C3F1, males, in feed, site: all sites, lesion: histiocytic sarcoma, dosed 101 weeks, study length 103 weeks) was 1150 mg/kg/day and the TD50 (mouse, strain B6C3F1, males, in feed, site: any site (literature study), lesion: several types, types named in the paper, dosed 101 weeks, study length 103 weeks) was 77.6 mg/kg/day. For the same compound, the TD50 (mouse, strain B6C3F1, males, in feed, site: liver + thyroid gland, lesion: hepatocellular adenoma + hepatoblastoma + hepatocellular carcinoma + follicular-cell adenoma, dosed 101 weeks, study length 103 weeks) was 60.2 mg/kg/day, the TD50 (mouse, strain B6C3F1, males, in feed, site: liver, lesion: hepatoblastoma + hepatocellular carcinoma, dosed 101 weeks, study length 103 weeks) was 24.7 mg/kg/day and the TD50 (mouse, strain B6C3F1, males, in feed, site: liver, lesion: hepatoblastoma, dosed 101 weeks, study length 103 weeks) was 52.5 mg/kg/day. It also gave a TD50 (mouse, strain B6C3F1, males, in feed, site: liver, lesion: hepatocellular adenoma + hepatoblastoma + hepatocellular carcinoma, dosed 101 weeks, study length 103 weeks) of 60.2 mg/kg/day, a TD50 (mouse, strain B6C3F1, males, in feed, site: liver, lesion: hepatocellular adenoma + hepatocellular carcinoma, dosed 101 weeks, study length 103 weeks) of 60.4 mg/kg/day and a TD50 (mouse, strain B6C3F1, males, in feed, site: liver, lesion: hepatocellular adenoma, dosed 101 weeks, study length 103 weeks) of 46.8 mg/kg/day. The TD50 (mouse, strain B6C3F1, males, in feed, site: liver, lesion: hepatocellular carcinoma, dosed 101 weeks, study length 103 weeks) was 55 mg/kg/day, the TD50 (mouse, strain B6C3F1, males, in feed, site: lung, lesion: alveolar/bronchiolar adenoma + alveolar/bronchiolar carcinoma, dosed 101 weeks, study length 103 weeks) was 1760 mg/kg/day and the TD50 (mouse, strain B6C3F1, males, in feed, site: thyroid gland, lesion: follicular-cell adenoma, dosed 101 weeks, study length 103 weeks) was 349 mg/kg/day. The carcinogen call (rat, strain Fischer 344, females, in feed, site: any site (literature study), lesion: several types, types named in the paper, dosed 101 weeks, study length 103 weeks) was “negative (inactive)”, the TD50 (rat, strain Fischer 344, females, in feed, site: liver, lesion: hepatocellular adenoma + hepatoblastoma + hepatocellular carcinoma, dosed 101 weeks, study length 103 weeks) was 4050 mg/kg/day and the TD50 (rat, strain Fischer 344, males, in feed, site: adrenal medulla, lesion: pheochromocytoma benign, bilateral + pheochromocytoma, benign, dosed 99 weeks, study length 103 weeks) was 20.8 mg/kg/day. For the same compound, the TD50 (rat, strain Fischer 344, males, in feed, site: adrenal medulla, lesion: pheochromocytoma benign, bilateral + pheochromocytoma, malignant + pheochromocytoma, benign, dosed 99 weeks, study length 103 weeks) was 20.8 mg/kg/day, the TD50 (rat, strain Fischer 344, males, in feed, site: any site (literature study), lesion: several types, types named in the paper, dosed 99 weeks, study length 103 weeks) was 15.4 mg/kg/day and the TD50 (rat, strain Fischer 344, males, in feed, site: kidney, lesion: tubule adenoma + tubule carcinoma, dosed 99 weeks, study length 103 weeks) was 522 mg/kg/day and 967 mg/kg/day. The TD50 (rat, strain Fischer 344, males, in feed, site: kidney, lesion: tubule adenoma, dosed 99 weeks, study length 103 weeks) was 1280 mg/kg/day and 1290 mg/kg/day, the TD50 (rat, strain Fischer 344, males, in feed, site: liver, lesion: hepatocellular adenoma + hepatoblastoma + hepatocellular carcinoma, dosed 99 weeks, study length 103 weeks) was 138 mg/kg/day and the TD50 (rat, strain Fischer 344, males, in feed, site: testis, lesion: interstitial-cell adenoma, bilateral + interstitial-cell adenoma, dosed 99 weeks, study length 103 weeks) was 8.15 mg/kg/day. The TD50 (rat, strain Fischer 344, males, in feed, site: thyroid gland, lesion: follicular-cell adenoma + follicular-cell carcinoma, dosed 99 weeks, study length 103 weeks) was 80.2 mg/kg/day and the TD50 (rat, strain Fischer 344, males, in feed, site: thyroid gland, lesion: follicular-cell adenoma, dosed 99 weeks, study length 103 weeks) was 174 mg/kg/day.

For `CNc1ncnc2nc[nH]c12`, the carcinogen call (mouse, strain Swiss CD-1, females, in drinking water, site: liver, lesion: hepatocellular tumor, dosed 26 weeks, study length 104 weeks) was “negative (inactive)”, the carcinogen call (mouse, strain Swiss CD-1, females, in drinking water, site: lung, lesion: one or several types, types not named, dosed 26 weeks, study length 104 weeks) was “negative (inactive)” and the carcinogen call (mouse, strain Swiss CD-1, males, in drinking water, site: liver, lesion: hepatocellular tumor, dosed 26 weeks, study length 106 weeks) was “negative (inactive)”. The carcinogen call (mouse, strain Swiss CD-1, males, in drinking water, site: lung, lesion: one or several types, types not named, dosed 26 weeks, study length 106 weeks) was “negative (inactive)”.

For `ClC(Cl)=C(Cl)C(Cl)=C(Cl)Cl`, the TD50 (rat, strain Sprague-Dawley Spartan, females, in feed, site: any site (literature study), lesion: several types, types named in the paper, dosed 104 weeks, study length 104 weeks) was 9.84 mg/kg/day, the TD50 (rat, strain Sprague-Dawley Spartan, females, in feed, site: kidney, lesion: several types, types named in the paper, dosed 104 weeks, study length 104 weeks) was 94.4 mg/kg/day and the carcinogen call (rat, strain Sprague-Dawley Spartan, females, in feed, site: liver, lesion: hepatocellular tumor, malignant, dosed 104 weeks, study length 104 weeks) was “negative (inactive)”. For the same compound, the TD50 (rat, strain Sprague-Dawley Spartan, males, in feed, site: kidney, lesion: several types, types named in the paper, dosed 95 weeks, study length 95 weeks) was 50.5 mg/kg/day and the carcinogen call (rat, strain Sprague-Dawley Spartan, males, in feed, site: liver, lesion: hepatocellular carcinoma, dosed 95 weeks, study length 95 weeks) was “negative (inactive)”.

`FC(F)(Cl)Cl` was tested, and the TD50 (mouse, strain Swiss, females, inhaled, site: all sites, lesion: leukemia, dosed 78 weeks, study length 104 weeks) was 4100 mg/kg/day (inactive), the TD50 (mouse, strain Swiss, females, inhaled, site: any site (literature study), lesion: malignant tumor, dosed 78 weeks, study length 104 weeks) was 3320 mg/kg/day (inactive) and the TD50 (mouse, strain Swiss, females, inhaled, site: any site (literature study), lesion: several types, types named in the paper, dosed 78 weeks, study length 104 weeks) was 59000 mg/kg/day (inactive). For the same compound, the TD50 (mouse, strain Swiss, females, inhaled, site: lung, lesion: adenoma, dosed 78 weeks, study length 104 weeks) was 91900 mg/kg/day (inactive), the TD50 (mouse, strain Swiss, males, inhaled, site: any site (literature study), lesion: malignant tumor, dosed 78 weeks, study length 104 weeks) was 33100 mg/kg/day (inactive) and the TD50 (mouse, strain Swiss, males, inhaled, site: any site (literature study), lesion: several types, types named in the paper, dosed 78 weeks, study length 104 weeks) was 12100 mg/kg/day (inactive). The TD50 (mouse, strain Swiss, males, inhaled, site: lung, lesion: adenoma, dosed 78 weeks, study length 104 weeks) was 41900 mg/kg/day (inactive), the carcinogen call (rat, strain Sprague-Dawley, females, inhaled, site: any site (literature study), lesion: malignant tumor, dosed 104 weeks, study length 104 weeks) was “negative (inactive)” and the carcinogen call (rat, strain Sprague-Dawley, females, inhaled, site: any site (literature study), lesion: several types, types named in the paper, dosed 104 weeks, study length 104 weeks) was “negative (inactive)”. For the same compound, the TD50 (rat, strain Sprague-Dawley, females, inhaled, site: liver, lesion: angiosarcoma, dosed 104 weeks, study length 104 weeks) was 31300 mg/kg/day (inactive), the TD50 (rat, strain Sprague-Dawley, males, inhaled, site: adrenal gland, lesion: pheochromocytoma, dosed 104 weeks, study length 104 weeks) was 1320 mg/kg/day (inactive) and the carcinogen call (rat, strain Sprague-Dawley, males, inhaled, site: any site (literature study), lesion: malignant tumor, dosed 104 weeks, study length 104 weeks) was “negative (inactive)”. The TD50 (rat, strain Sprague-Dawley, males, inhaled, site: any site (literature study), lesion: several types, types named in the paper, dosed 104 weeks, study length 104 weeks) was 555 mg/kg/day (inactive) and the carcinogen call (rat, strain Sprague-Dawley, males, inhaled, site: liver, lesion: angiosarcoma, dosed 104 weeks, study length 104 weeks) was “negative (inactive)”.

For `O=C(C1CCCCC1)N1CC(=O)N2CCc3ccccc3C2C1` (stereo unspecified), the TD50 (hamster, strain Syrian Golden, females, by gavage, site: any site (literature study), lesion: several types, types named in the paper, dosed 80 weeks, study length 80 weeks) was 250 mg/kg/day (inactive), the carcinogen call (hamster, strain Syrian Golden, males, by gavage, site: any site (literature study), lesion: several types, types named in the paper, dosed 80 weeks, study length 80 weeks) was “negative (inactive)” and the carcinogen call (rat, strain Sprague-Dawley, females, by gavage, site: any site (literature study), lesion: several types, types named in the paper, dosed 104 weeks, study length 130 weeks) was “negative (inactive)”. The carcinogen call (rat, strain Sprague-Dawley, males, by gavage, site: any site (literature study), lesion: several types, types named in the paper, dosed 104 weeks, study length 130 weeks) was “negative (inactive)”.

In the case of `COc1cc(NC(=O)C(N=Nc2ccc(-c3ccc(N=NC(C(C)=O)C(=O)Nc4cc(OC)c(Cl)cc4OC)c(Cl)c3)cc2Cl)C(C)=O)c(OC)cc1Cl` (stereo unspecified), the carcinogen call (mouse, strain NMRI, both sexes, in feed, site: any site (literature study), lesion: one or several types, types not named, dosed 104 weeks, study length 104 weeks) was “negative (inactive)” and the TD50 (rat, strain Sprague-Dawley, both sexes, in feed, site: any site (literature study), lesion: one or several types, types not named, dosed 104 weeks, study length 104 weeks) was 3560 mg/kg/day (inactive).
